From patent publication US12590062B2, “PD-1/PD-L1 inhibitors” (Gilead Sciences, Inc., priority 2017, dated 2026)

Columns and labels:
PD-1/PD-L1 interaction = target: T1, PD-1/PD-L1 interaction (Homo sapiens, UniProt Q9NZQ7); test: PD-1/PD-L1 NFAT reporter co-culture assay; format: cell-based; details: Jurkat PD-1 NFAT-luciferase cells co-cultured with aAPC-PD-L1 CHO cells, 6 hrs at 37° C.; read-out: EC50 NFAT Luciferase
T1 construct: expressed in transfected cells; host or cells: CHO cells (aAPC-PD-L1) co-cultured with Jurkat cells overexpressing PD-1 and an NFAT-luciferase reporter
T1 sequence (Q9NZQ7 19-290): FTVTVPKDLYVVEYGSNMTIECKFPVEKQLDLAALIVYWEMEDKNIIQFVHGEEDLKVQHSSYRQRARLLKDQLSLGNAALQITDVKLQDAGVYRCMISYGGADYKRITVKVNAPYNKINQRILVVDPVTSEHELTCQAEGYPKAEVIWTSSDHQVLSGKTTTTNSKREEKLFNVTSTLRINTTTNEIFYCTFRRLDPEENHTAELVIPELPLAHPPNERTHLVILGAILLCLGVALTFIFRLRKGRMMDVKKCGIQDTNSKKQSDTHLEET
Outline: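 Compounds are scored by restoration of NFAT-luciferase signal in PD-1-expressing Jurkat cells cultured 6 h at 37 °C on CHO cells presenting anti-CD3 and PD-L1; EC50 values derive from four-parameter curve fitting.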

[1] = target: T2, interaction between the recombinant extracellular domain (ECD) of PD-1 and native cell-bound PD-L1 (Homo sapiens, UniProt Q9NZQ7); test: CHO/PD-L1 cell capture assay; format: cell-based; details: CHO cells overexpressing PD-L1, pre-incubated 1 hr with compound, captured on biotinylated Fc-PD-1 coated plates, 75 min at room temperature
T2 construct: expressed in transfected cells
T2 sequence (Q9NZQ7 19-290): as above
Outline: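 EC50 values came from four-parameter fits of counts of Draq5-stained CHO-PD-L1 cells retained on plate-bound biotinylated Fc-PD-1 ECD, enumerated by high-content imaging. Cells in PBS pH 7.4 with EDTA and 2% BSA had 1 hr compound pre-incubation, then 75 min capture at room temperature.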

PD-L1 = target: T3, PD-L1 (Homo sapiens, UniProt Q9NZQ7); test: PD-L1/PD-L1 dimerization biochemical protein-protein interaction assay (ALPHA); format: binding; details: compound-induced PD-L1 dimerization, head prints '1 nM' (0.5 nM His-tagged PD-L1 and 0.5 nM FLAG-tagged PD-L1), read-out: AC50 PDL1 Dimer Alpha 1 nM
T3 construct: determine if they can specifically dimerize the extracellular domains of PD-L1
T3 sequence (Q9NZQ7 19-238 limits assumed): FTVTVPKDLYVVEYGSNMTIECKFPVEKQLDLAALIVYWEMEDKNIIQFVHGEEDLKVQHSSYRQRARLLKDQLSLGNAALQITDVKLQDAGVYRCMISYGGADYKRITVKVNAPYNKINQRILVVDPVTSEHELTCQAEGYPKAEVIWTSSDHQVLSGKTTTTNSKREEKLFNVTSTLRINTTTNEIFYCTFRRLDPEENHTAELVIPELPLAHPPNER
T3 sequence (Q9NZQ7 19-238 limits assumed): as above
Outline: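 After 2 h at 25 °C with compound, His- and FLAG-tagged PD-L1 ECDs (each 0.5 nM final; 25 mM Hepes pH 7.4, 150 mM NaCl) were detected by sequential anti-His acceptor and anti-FLAG donor bead incubations. Dose-response curves fitted to four-parameter equation for AC50.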

PD-1/PD-L1 = PD-1/PD-L1 (Homo sapiens, UniProt Q9NZQ7); test: PD-1/PD-L1 biochemical protein-protein interaction assay (ALPHA); format: binding; details: 0.3 nM His tagged PD-L1, 2.5 nM biotinylated Fc-PD-1, 60 minutes at 25° C., read-out: IC50 PD-L1-PD-1 Alpha IC50-mono PD-L1-fcP-D1
PD-1/PD-L1, sequence (Q9NZQ7 19-238 limits assumed): as above
Outline: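 IC50 values derive from four-parameter fits of ALPHA signal decrease. Assay: 0.3 nM His-tagged PD-L1 with 2.5 nM biotinylated Fc-PD-1, Hepes pH 7.4 with 0.005% Tween 20 and 0.01% BSA, 60 min at 25° C, then anti-His acceptor and streptavidin donor beads.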

| Compound | EC50 (PD-1/PD-L1 interaction) [nM] | EC50 [1] [nM] | AC50 (PD-L1) [nM] | IC50 (PD-1/PD-L1) [nM] |
| --- | --- | --- | --- | --- |
| N#Cc1cncc(COc2nc(O[C@H]3CCc4c(-c5cccc6c5CC[C@@H]6Oc5nc(OCc6cncc(C#N)c6)c(CNC[C@@H](O)CC(=O)O)cc5Br)cccc43)c(Br)cc2CNC[C@@H](O)CC(=O)O)c1 [Example 4, (3S,3′S)-4,4′-((((((1S,1′S)-2,2′,3,3′-tetrahydro-1H,1′H-[4,4′-biindene]-1,1′-diyl)bis(oxy))bis(5-bromo-2-((5-cyanopyridin-3-yl)methoxy)pyridine-6,3-diyl))bis(methylene))bis(azanediyl))bis(3-hydroxybutanoic acid)] | 17 | 15.6 | 67.2 | 0.1 |
| COc1nc(O[C@H]2CCc3c(-c4cccc5c4CC[C@@H]5Oc4nc(OC)c(CNC[C@@H](O)CC(=O)O)cc4Cl)cccc32)c(Cl)cc1CNC[C@@H](O)CC(=O)O [Example 6, (3S,3′S)-4,4′-((((((1S,1′S)-2,2′,3,3′-tetrahydro-1H,1′H-[4,4′-biindene]-1,1′-diyl)bis(oxy))bis(5-chloro-2-methoxypyridine-6,3-diyl))bis(methylene))bis(azanediyl))bis(3-hydroxybutanoic acid)] | 148 | 63.8 | 90.9 | 0.1 |
| COc1nc(O[C@H]2CCc3c(-c4cccc5c4CC[C@@H]5Oc4nc(OC)c(CNC[C@@H](O)CC(=O)O)cc4Br)cccc32)c(Br)cc1CNC[C@@H](O)CC(=O)O [Example 7, (3S,3′S)-4,4′-((((((1S,1′S)-2,2′,3,3′-tetrahydro-1H,1′H-[4,4′-biindene]-1,1′-diyl)bis(oxy))bis(5-bromo-2-methoxypyridine-6,3-diyl))bis(methylene))bis(azanediyl))bis(3-hydroxybutanoic acid)] | 89 | 56 | 140 | 0.1 |
| Cc1c(COc2nc(OCCC(=O)N(C)C)c(CNC[C@@H](O)CC(=O)O)cc2Br)cccc1-c1cccc(COc2nc(OCCC(=O)N(C)C)c(CNC[C@@H](O)CC(=O)O)cc2Br)c1C [Example 135, (3S,3′S)-4,4′-((((((2,2′-dimethyl-[1,1′-biphenyl]-3,3′-diyl)bis(methylene))bis(oxy))bis(5-bromo-2-(3-(dimethylamino)-3-oxopropoxy)pyridine-6,3-diyl))bis(methylene))bis(azanediyl))bis(3-hydroxybutanoic acid)] | 812 | 221 | 250 |  |
| Cc1c(COc2nc(OCCCCC#N)c(CNC[C@@H](O)CC(=O)O)cc2Br)cccc1-c1cccc(COc2nc(OCCCCC#N)c(CNC[C@@H](O)CC(=O)O)cc2Br)c1C [Example 143, (3S,3′S)-4,4′-((((((2,2′-dimethyl-[1,1′-biphenyl]-3,3′-diyl)bis(methylene))bis(oxy))bis(5-bromo-2-(4-cyanobutoxy)pyridine-6,3-diyl))bis(methylene))bis(azanediyl))bis(3-hydroxybutanoic acid)] | 217 | 296 | 395 |  |
| Cc1c(COc2nc(OCCC(N)=O)c(CNCC(=O)O)cc2Cl)cccc1-c1cccc(COc2nc(OCCC(N)=O)c(CNCC(=O)O)cc2Cl)c1C [Example 146, 2,2′-((((((2,2′-dimethyl-[1,1′-biphenyl]-3,3′-diyl)bis(methylene))bis(oxy))bis(2-(3-amino-3-oxopropoxy)-5-chloropyridine-6,3-diyl))bis(methylene))bis(azanediyl))diacetic acid] | 2300 | 184 | 334 |  |
| COc1nc(OCc2cccc(-c3cccc(COc4nc(OC)c(CNCCC(=O)O)cc4Cl)c3C)c2C)c(Cl)cc1CNCCC(=O)O [Example 172, 3,3′-((((((2,2′-dimethyl-[1,1′-biphenyl]-3,3′-diyl)bis(methylene))bis(oxy))bis(5-chloro-2-methoxypyridine-6,3-diyl))bis(methylene))bis(azanediyl))dipropionic acid] | 139 | 50.6 | ≥ 10000 |  |
| COc1nc(OCc2cccc(-c3cccc(COc4nc(OC)c(CNCCCC(=O)O)cc4Cl)c3C)c2C)c(Cl)cc1CNCCCC(=O)O [Example 183, 4,4′-((((((2,2′-dimethyl-[1,1′-biphenyl]-3,3′-diyl)bis(methylene))bis(oxy))bis(5-chloro-2-methoxypyridine-6,3-diyl))bis(methylene))bis(azanediyl))dibutyric acid] | 141 | 69.1 | 260 |  |
| COc1nc(OCc2cccc(-c3cccc(COc4nc(OC)c(CNC[C@H](O)CC(=O)O)cc4Br)c3Cl)c2Cl)ccc1CNC[C@H](O)CC(=O)O [Example 192, (R)-4-(((6-((3′-(((3-Bromo-5-((((R)-3-carboxy-2-hydroxypropyl)amino)methyl)-6-methoxypyridin-2-yl)oxy)methyl)-2,2′-dichloro-[1,1′-biphenyl]-3-yl)methoxy)-2-methoxypyridin-3-yl)methyl)amino)-3-hydroxybutanoic acid] | 197 | 31.2 | 267 |  |
| Cc1c(COc2cc(OCc3cncc(C#N)c3)c(CNC[C@@H](O)CC(=O)O)cc2Cl)cccc1-c1cccc(-c2ccc3c(cnn3CCNC[C@@H](O)CC(=O)O)c2)c1C [Example 209, (S)-4-((4-((3′-(1-(2-(((S)-3-carboxy-2-hydroxypropyl)amino)ethyl)-1H-indazol-5-yl)-2,2′-dimethyl-[1,1′-biphenyl]-3-yl)methoxy)-5-chloro-2-((5-cyanopyridin-3-yl)methoxy)benzyl)amino)-3-hydroxybutanoic acid] | 73 | 13.1 | 70.5 |  |

Now from value to compound:

| EC50 (PD-1/PD-L1 interaction) [nM] | EC50 [1] [nM] | AC50 (PD-L1) [nM] | IC50 (PD-1/PD-L1) [nM] | Compound |
| --- | --- | --- | --- | --- |
| 304 | 45.6 | 81.2 |  | Cc1c(COc2cc(OCc3cncc(C#N)c3)c(CNC[C@@H](O)CC(=O)O)cc2Cl)cccc1-c1cccc(-c2ccc3sc(CNC[C@@H](O)CC(=O)O)cc3c2)c1C [Example 211] |
| 331 | 142 | 314 |  | COc1nc(OCc2cccc(-c3cccc(COc4nc(OC)c(CN5CCC[C@H]5C(=O)O)cc4Cl)c3C)c2C)c(Cl)cc1CN1CCC[C@H]1C(=O)O [Example 232, (2′S)-(((((2,2′-dimethyl-[1,1′-biphenyl]-3,3′-diyl)bis(methylene))bis(oxy))bis(5-chloro-2-methoxypyridine-6,3-diyl))bis(methylene))di-L-proline] |
| 260 | 27.7 | 109 |  | Cc1c(COc2cc(OCc3cncc(C#N)c3)c(CNC[C@@H](O)CC(=O)O)cc2Cl)cccc1-c1cccc(OCc2ccc(CNC[C@@H](O)CC(=O)O)cc2)c1C [Example 279, (S)-4-((4-(((3′-((4-((((S)-3-carboxy-2-hydroxypropyl)amino)methyl)-2-chloro-5-((5-cyanopyridin-3-yl)methoxy)phenoxy)methyl)-2,2′-dimethyl-[1,1′-biphenyl]-3-yl)oxy)methyl)benzyl)amino)-3-hydroxybutanoic acid] |
| 463 | 254 | 327 |  | Cc1c(COc2cc(OCc3cncc(C#N)c3)c(CNC(CO)(CO)CO)cc2Cl)cccc1-c1cccc(COc2cc(OCc3cncc(C#N)c3)c(CNC(CO)(CO)CO)cc2Cl)c1C [Example 282, 5,5′-((((((2,2′-dimethyl-[1,1′-biphenyl]-3,3′-diyl)bis(methylene))bis(oxy))bis(4-chloro-6-(((1,3-dihydroxy-2-(hydroxymethyl)propan-2-yl)amino)methyl)-3,1-phenylene))bis(oxy))bis(methylene))dinicotinonitrile] |
